Measured values from patent US8247211B2, “Glycopeptide antibiotics” (American Cyanamid Company, priority 2001, dated 2012).
Converted amounts (≈) assume the structure as drawn.

Experiments:
Assay in all cases: In vitro antibacterial evaluation: minimum inhibitory concentration (MIC), broth dilution method
Assay type in all cases: cell-based
Enterococcus sp. = details: 18 hours at 35° C.
Summary of the method: (§1)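 First, organisms are seeded at 5×10^5 CFU/mL into Muller-Hinton II […]. Next, antibiotic is applied across 64-0.06 μg/mL by broth dilution (NCCLS M7-A2). Finally, the lowest inhibitory concentration is recorded as MIC.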

Escherichia coli = details: 18 hours at 35° C.
Summary of the method: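 Test strains, among them recent clinical isolates carrying methicillin, penicillin and/or vancomycin resistance, were inoculated at 5×10^5 CFU/mL. A broth dilution series spanning 64-0.06 μg/mL in Muller-Hinton II […] (NCCLS M7-A2) defined the MIC as the lowest growth-inhibiting concentration.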

Staphylococcus sp. = test system: Staphylococcus sp.
Summary of the method: as §1

Streptococcus sp. = details: 18 hours at 35° C.
Summary of the method: as §1

[1] = broth dilution, inoculum 5×10^5 CFU/mL

## CC(c1ccccc1)C1NC(=O)CNC(=O)C(CO)NC(=O)C(CC2CNC(=N)N2C2OC(CO)C(O)C(O)C2O)NC(=O)C(CC2CNC(=N)N2)NC(=O)C(Cc2ccc(OC3OC(CO)C(OC4OC5COC(c6ccc(OCc7ccccc7)cc6)OC5C(O)C4O)C(O)C3O)cc2)NC1=O (stereo not shown) [Example 191]
Enterococcus sp.; Enterococcus avium (GC 4558)
  MIC Enterococcus avium (GC 4558): 4 µg/mL (≈ 2.74 µM)
Enterococcus sp.; Enterococcus faecalis (ATCC 29212)
  MIC Enterococcus faecalis (ATCC 29212): 16 µg/mL (≈ 11 µM)
Enterococcus sp.; Enterococcus faecalis (GC 2242)
  MIC Enterococcus faecalis (GC 2242): 8 µg/mL (≈ 5.49 µM)
Enterococcus sp.; Enterococcus faecalis (GC 2691)
  MIC Enterococcus faecalis (GC 2691): 8 µg/mL (≈ 5.49 µM)
Enterococcus sp.; Enterococcus faecalis (GC 3059)
  MIC Enterococcus faecalis (GC 3059): 8 µg/mL (≈ 5.49 µM)
Enterococcus sp.; Enterococcus faecalis (GC 4552)
  MIC Enterococcus faecalis (GC 4552): 16 µg/mL (≈ 11 µM)
Enterococcus sp.; Enterococcus faecalis (GC 4553)
  MIC Enterococcus faecalis (GC 4553): 8 µg/mL (≈ 5.49 µM)
Enterococcus sp.; Enterococcus faecalis (GC 4554)
  MIC Enterococcus faecalis (GC 4554): 16 µg/mL (≈ 11 µM)
Enterococcus sp.; Enterococcus faecalis (GC 6189)
  MIC Enterococcus faecalis (GC 6189): 8 µg/mL (≈ 5.49 µM)
Enterococcus sp.; Enterococcus faecium (GC 2243)
  MIC Enterococcus faecium (GC 2243): 8 µg/mL (≈ 5.49 µM)
Enterococcus sp.; Enterococcus faecium (GC 4556)
  MIC Enterococcus faecium (GC 4556): 8 µg/mL (≈ 5.49 µM)
Enterococcus sp.; Enterococcus faecium (GC 4557)
  MIC Enterococcus faecium (GC 4557): 4 µg/mL (≈ 2.74 µM)
Enterococcus sp.; [1]
  MIC Enterococcus avium (GC 4558): 4 µg/mL (≈ 2.74 µM)
  MIC Enterococcus faecalis (ATCC 29212): 16 µg/mL (≈ 11 µM)
  MIC Enterococcus faecalis (GC 2242): 8 µg/mL (≈ 5.49 µM)
  MIC Enterococcus faecalis (GC 2691): 8 µg/mL (≈ 5.49 µM)
  MIC Enterococcus faecalis (GC 3059): 8 µg/mL (≈ 5.49 µM)
  MIC Enterococcus faecalis (GC 4552): 16 µg/mL (≈ 11 µM)
  MIC Enterococcus faecalis (GC 4553): 8 µg/mL (≈ 5.49 µM)
  MIC Enterococcus faecalis (GC 4554): 16 µg/mL (≈ 11 µM)
  MIC Enterococcus faecalis (GC 6189): 8 µg/mL (≈ 5.49 µM)
  MIC Enterococcus faecium (GC 2243): 8 µg/mL (≈ 5.49 µM)
  MIC Enterococcus faecium (GC 4556): 8 µg/mL (≈ 5.49 µM)
  MIC Enterococcus faecium (GC 4557): 4 µg/mL (≈ 2.74 µM)
Escherichia coli; Escherichia coli (ATCC 25922)
  MIC Escherichia coli (ATCC 25922): 64 µg/mL (≈ 43.9 µM)
Escherichia coli; Escherichia coli (GC 4559)
  MIC Escherichia coli (GC 4559): 64 µg/mL (≈ 43.9 µM)
Escherichia coli; Escherichia coli (GC 4560)
  MIC Escherichia coli (GC 4560): 8 µg/mL (≈ 5.49 µM)
Staphylococcus sp.; strain ATCC 29213
  MIC Staphylococcus aureus (ATCC 29213): 4 µg/mL (≈ 2.74 µM)
Staphylococcus sp.; strain GC 1131
  MIC Staphylococcus aureus (GC 1131): 8 µg/mL (≈ 5.49 µM)
Staphylococcus sp.; strain GC 3051
  MIC Staphylococcus aureus (GC 3051): 8 µg/mL (≈ 5.49 µM)
Staphylococcus sp.; strain GC 3053
  MIC Staphylococcus aureus (GC 3053): 8 µg/mL (≈ 5.49 µM)
Staphylococcus sp.; strain GC 4541
  MIC Staphylococcus aureus (GC 4541): 4 µg/mL (≈ 2.74 µM)
Staphylococcus sp.; strain GC 4542
  MIC Staphylococcus aureus (GC 4542): 4 µg/mL (≈ 2.74 µM)
Staphylococcus sp.; strain GC 4543
  MIC Staphylococcus aureus-SMITH (GC 4543): 4 µg/mL (≈ 2.74 µM)
Staphylococcus sp.; strain GC 4544
  MIC Staphylococcus aureus (GC 4544): 8 µg/mL (≈ 5.49 µM)
Staphylococcus sp.; strain GC 4545
  MIC Staphylococcus aureus (GC 4545): 4 µg/mL (≈ 2.74 µM)
Staphylococcus sp.; strain GC 4546
  MIC Staphylococcus haemolyticus (GC 4546): 4 µg/mL (≈ 2.74 µM)
Staphylococcus sp.; strain GC 4547
  MIC Coagulase Negative Staphylococcus (GC 4547): 8 µg/mL (≈ 5.49 µM)
Staphylococcus sp.; strain GC 4548
  MIC Coagulase Negative Staphylococcus (GC 4548): 4 µg/mL (≈ 2.74 µM)
Staphylococcus sp.; strain GC 4549
  MIC Coagulase Negative Staphylococcus (GC 4549): 4 µg/mL (≈ 2.74 µM)
Staphylococcus sp.; strain GC 4551
  MIC Coagulase Negative Staphylococcus (GC 4551): 4 µg/mL (≈ 2.74 µM)
Staphylococcus sp.; strain GC 6257
  MIC Coagulase Negative Staphylococcus (GC 6257): 4 µg/mL (≈ 2.74 µM)
Streptococcus sp.; Streptococcus agalactiae (GC 4564)
  MIC Streptococcus agalactiae (GC 4564): 2 µg/mL (≈ 1.37 µM)
Streptococcus sp.; Streptococcus pneumoniae (ATCC 6301)
  MIC Streptococcus pneumoniae (ATCC 6301): 1 µg/mL (≈ 0.686 µM)
Streptococcus sp.; Streptococcus pneumoniae (GC 1894)
  MIC Streptococcus pneumoniae (GC 1894): 0.25 µg/mL (≈ 0.172 µM)
Streptococcus sp.; Streptococcus pneumoniae (GC 4565)
  MIC Streptococcus pneumoniae (GC 4565): 2 µg/mL (≈ 1.37 µM)
Streptococcus sp.; Streptococcus pyogenes (GC 4563)
  MIC Streptococcus pyogenes (GC 4563): 2 µg/mL (≈ 1.37 µM)
Streptococcus sp.; [1]
  MIC Streptococcus agalactiae (GC 4564): 2 µg/mL (≈ 1.37 µM)
  MIC Streptococcus pneumoniae (ATCC 6301): 1 µg/mL (≈ 0.686 µM)
  MIC Streptococcus pneumoniae (GC 1894): 0.25 µg/mL (≈ 0.172 µM)
  MIC Streptococcus pneumoniae (GC 4565): 2 µg/mL (≈ 1.37 µM)
  MIC Streptococcus pyogenes (GC 4563): 2 µg/mL (≈ 1.37 µM)
